Data reported in ChEMBL document CHEMBL3352393, “Gallic acid, one of the components in many plant tissues, is a potential inhibitor for insulin amyloid fibril formation” (Eur J Med Chem, 2014).
Active and inactive are the calls of the source. The rule behind the calls is not given here.

Key:
Homo sapiens [1] = species: Homo sapiens; test: Inhibition of insulin fibril formation (unknown origin) assessed as turbidity at 1:5 insulin to compound ratio at pH2 up to 12 hrs by UV/vis spectrometry; conditions: concentration not given here
Homo sapiens [2] = species: Homo sapiens; test: Inhibition of insulin fibril formation (unknown origin) assessed as turbidity at pH2 up to 12 hrs by UV/vis spectrometry
Homo sapiens [3] = species: Homo sapiens; test: Inhibition of insulin fibril formation (unknown origin) assessed as decrease in ThT fluorescence at 1:50 insulin to compound ratio at pH2 up to 12 hrs by ThT binding assay
Homo sapiens [4] = species: Homo sapiens; test: Inhibition of insulin fibril formation (unknown origin) assessed as turbidity at 1:50 insulin to compound ratio at pH2 up to 12 hrs by UV/vis spectrometry; conditions: concentration not given here
Homo sapiens [5] = species: Homo sapiens; test: Inhibition of insulin fibril formation (unknown origin) assessed as decrease in ThT fluorescence at 1:5 insulin to compound ratio at pH2 up to 12 hrs by ThT binding assay
Homo sapiens [6] = species: Homo sapiens; test: Inhibition of insulin fibril formation (unknown origin) assessed as secondary structural changes at 1:5 insulin to compound ratio at pH2 up to 12 hrs by Far-UV CD spectra
Homo sapiens [7] = species: Homo sapiens; test: Inhibition of insulin fibril formation (unknown origin) assessed as secondary structural changes at 1:5 insulin to compound ratio at pH2 up to 12 hrs by FT-IR technique
Homo sapiens [8] = species: Homo sapiens; test: Inhibition of insulin fibril formation (unknown origin) assessed as turbidity at 1:10 insulin to compound ratio at pH2 up to 12 hrs by UV/vis spectrometry
Homo sapiens [9] = species: Homo sapiens; test: Inhibition of insulin fibril formation (unknown origin) assessed as turbidity at 1:20 insulin to compound ratio at pH2 up to 12 hrs by atomic force microscopy

O=C(O)c1cc(O)c(O)c(O)c1
inhibition (Homo sapiens [1]): > 50% | inhibition (Homo sapiens [2]): Dose-dependent effect | inhibition (Homo sapiens [3]): Active | inhibition (Homo sapiens [4]): 90% | inhibition (Homo sapiens [5]): Active | inhibition (Homo sapiens [6]): Active | inhibition (Homo sapiens [7]): Active | inhibition (Homo sapiens [8]): Active | inhibition (Homo sapiens [9]): Active
